In PubChem BioAssay (NCI):
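Tested at 5 concentrations; 48 h exposure; 96-well plates; endpoints linearly interpolated, else capped at highest concentration. The concentration for full growth arrest is given as TGI.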

Tests used:
Experiment in all cases: NCI anticancer screen, dose series, 48 h
UO-31 renal = system: UO-31 renal
SN12C renal = system: SN12C renal
A549 NSCLC = system: A549 NSCLC
MDA-N = system: MDA-N
PC-3 prostate = system: PC-3 prostate
SNB-19 CNS = system: SNB-19 CNS
LOX IMVI melanoma = system: LOX IMVI melanoma
HT29 colon = system: HT29 colon
HCT-15 colon = system: HCT-15 colon
CCRF-CEM leukemia = system: CCRF-CEM leukemia
SF-539 CNS = system: SF-539 CNS
HOP-62 NSCLC = system: HOP-62 NSCLC
SK-MEL-28 melanoma = system: SK-MEL-28 melanoma
SK-MEL-5 melanoma = system: SK-MEL-5 melanoma
MOLT-4 leukemia = system: MOLT-4 leukemia
SNB-75 CNS = system: SNB-75 CNS
OVCAR-3 ovarian = system: OVCAR-3 ovarian
SR leukemia = system: SR leukemia
OVCAR-8 ovarian = system: OVCAR-8 ovarian
HCT-116 colon = system: HCT-116 colon
SF-295 CNS = system: SF-295 CNS
NCI-H226 lung = system: NCI-H226 lung
IGROV1 ovarian = system: IGROV1 ovarian
RPMI-8226 leukemia = system: RPMI-8226 leukemia
MCF7 breast = system: MCF7 breast
HL-60(TB) leukemia = system: HL-60(TB) leukemia
MALME-3M melanoma = system: MALME-3M melanoma
OVCAR-4 ovarian = system: OVCAR-4 ovarian
COLO 205 colon = system: COLO 205 colon
MDA-MB-231 breast = system: MDA-MB-231 breast
SK-OV-3 ovarian = system: SK-OV-3 ovarian
CAKI-1 renal = system: CAKI-1 renal
M14 melanoma = system: M14 melanoma
NCI-H23 lung = system: NCI-H23 lung
786-0 renal = system: 786-0 renal
NCI/ADR-RES ovarian = system: NCI/ADR-RES ovarian
ACHN renal = system: ACHN renal
A498 renal = system: A498 renal
SW-620 colon = system: SW-620 colon
K-562 leukemia = system: K-562 leukemia
HS 578T breast = system: HS 578T breast
OVCAR-5 ovarian = system: OVCAR-5 ovarian
HOP-92 NSCLC = system: HOP-92 NSCLC
T-47D breast = system: T-47D breast
U251 CNS = system: U251 CNS
UACC-257 melanoma = system: UACC-257 melanoma
KM12 colon = system: KM12 colon
SF-268 CNS = system: SF-268 CNS
RXF 393 renal = system: RXF 393 renal
NCI-H522 lung = system: NCI-H522 lung
BT-549 breast = system: BT-549 breast
NCI-H460 lung = system: NCI-H460 lung
SK-MEL-2 melanoma = system: SK-MEL-2 melanoma
EKVX NSCLC = system: EKVX NSCLC
HCC-2998 colon = system: HCC-2998 colon
TK-10 renal = system: TK-10 renal
UACC-62 melanoma = system: UACC-62 melanoma
MDA-MB-435 = system: MDA-MB-435

SMILES: Nc1nc(N)c2cc(-c3ccccc3)cnc2n1
- TGI (UO-31 renal): 25.7 µM
- TGI (SN12C renal): 29.1 µM
- TGI (A549 NSCLC): 28 µM
- TGI (MDA-N): 25.4 µM
- TGI (PC-3 prostate): 20.6 µM
- TGI (SNB-19 CNS): 38.3 µM
- TGI (LOX IMVI melanoma): 37.6 µM
- TGI (HT29 colon): 21 µM
- TGI (HCT-15 colon): > 100 µM
- TGI (CCRF-CEM leukemia): 98.3 µM
- TGI (SF-539 CNS): 31.1 µM
- TGI (HOP-62 NSCLC): 40.9 µM
- TGI (SK-MEL-28 melanoma): 35 µM
- TGI (SK-MEL-5 melanoma): 27.3 µM
- TGI (MOLT-4 leukemia): 28.3 µM
- TGI (SNB-75 CNS): 17.3 µM
- TGI (OVCAR-3 ovarian): 35.8 µM
- TGI (SR leukemia): 21.2 µM
- TGI (OVCAR-8 ovarian): 57.4 µM
- TGI (HCT-116 colon): 17.3 µM
- TGI (SF-295 CNS): 33 µM
- TGI (NCI-H226 lung): 33.1 µM
- TGI (IGROV1 ovarian): 26.8 µM
- TGI (RPMI-8226 leukemia): 48.9 µM
- TGI (MCF7 breast): 44.1 µM
- TGI (HL-60(TB) leukemia): 28.4 µM
- TGI (MALME-3M melanoma): 21.7 µM
- TGI (OVCAR-4 ovarian): 35.2 µM
- TGI (COLO 205 colon): 27.3 µM
- TGI (MDA-MB-231 breast): 20.4 µM
- TGI (SK-OV-3 ovarian): > 100 µM
- TGI (CAKI-1 renal): 29.5 µM
- TGI (M14 melanoma): 57.7 µM
- TGI (NCI-H23 lung): 25.9 µM
- TGI (786-0 renal): 21.5 µM
- TGI (NCI/ADR-RES ovarian): > 100 µM
- TGI (ACHN renal): 26.3 µM
- TGI (A498 renal): 28.5 µM
- TGI (SW-620 colon): 22.9 µM
- TGI (K-562 leukemia): 17.7 µM
- TGI (HS 578T breast): 46.2 µM
- TGI (OVCAR-5 ovarian): 27.7 µM
- TGI (HOP-92 NSCLC): 30.1 µM
- TGI (T-47D breast): > 100 µM
- TGI (U251 CNS): 42 µM
- TGI (UACC-257 melanoma): 30.6 µM
- TGI (KM12 colon): 30.1 µM
- TGI (SF-268 CNS): 8.78 µM
- TGI (RXF 393 renal): 22.5 µM
- TGI (NCI-H522 lung): 44.9 µM
- TGI (BT-549 breast): 30.2 µM
- TGI (NCI-H460 lung): 24.3 µM
- TGI (SK-MEL-2 melanoma): > 100 µM
- TGI (EKVX NSCLC): 45.1 µM
- TGI (HCC-2998 colon): > 100 µM
- TGI (TK-10 renal): 29.9 µM

SMILES: COc1cccc2c1CCc1c(-c3ccc(F)cc3)cc(-c3ccc4ccccc4n3)nc1-2
- TGI (UO-31 renal): > 100 µM
- TGI (A549 NSCLC): > 100 µM
- TGI (MDA-N): > 100 µM
- TGI (PC-3 prostate): > 100 µM
- TGI (SNB-19 CNS): > 100 µM
- TGI (LOX IMVI melanoma): > 100 µM
- TGI (HT29 colon): > 100 µM
- TGI (HCT-15 colon): > 100 µM
- TGI (CCRF-CEM leukemia): > 100 µM
- TGI (UACC-62 melanoma): > 100 µM
- TGI (SF-539 CNS): > 100 µM
- TGI (HOP-62 NSCLC): > 100 µM
- TGI (SK-MEL-5 melanoma): > 100 µM
- TGI (MDA-MB-435): > 100 µM
- TGI (MOLT-4 leukemia): > 100 µM
- TGI (SNB-75 CNS): > 100 µM
- TGI (OVCAR-3 ovarian): > 100 µM
- TGI (SR leukemia): > 100 µM
- TGI (OVCAR-8 ovarian): > 100 µM
- TGI (HCT-116 colon): > 100 µM
- TGI (SF-295 CNS): > 100 µM
- TGI (NCI-H226 lung): > 100 µM
- TGI (IGROV1 ovarian): > 100 µM
- TGI (RPMI-8226 leukemia): > 100 µM
- TGI (MCF7 breast): > 100 µM
- TGI (MALME-3M melanoma): > 100 µM
- TGI (OVCAR-4 ovarian): > 100 µM
- TGI (COLO 205 colon): > 100 µM
- TGI (MDA-MB-231 breast): > 100 µM
- TGI (SK-OV-3 ovarian): > 100 µM
- TGI (CAKI-1 renal): > 100 µM
- TGI (M14 melanoma): > 100 µM
- TGI (NCI-H23 lung): > 100 µM
- TGI (786-0 renal): > 100 µM
- TGI (NCI/ADR-RES ovarian): > 100 µM
- TGI (ACHN renal): > 100 µM
- TGI (A498 renal): > 100 µM
- TGI (SW-620 colon): > 100 µM
- TGI (K-562 leukemia): > 100 µM
- TGI (HS 578T breast): > 100 µM
- TGI (OVCAR-5 ovarian): > 100 µM
- TGI (HOP-92 NSCLC): > 100 µM
- TGI (T-47D breast): > 100 µM
- TGI (U251 CNS): > 100 µM
- TGI (UACC-257 melanoma): > 100 µM
- TGI (KM12 colon): > 100 µM
- TGI (SF-268 CNS): > 100 µM
- TGI (RXF 393 renal): > 100 µM
- TGI (NCI-H522 lung): > 100 µM
- TGI (BT-549 breast): > 100 µM
- TGI (NCI-H460 lung): > 100 µM
- TGI (SK-MEL-2 melanoma): > 100 µM
- TGI (EKVX NSCLC): > 100 µM
- TGI (TK-10 renal): > 100 µM
